Experimental findings from patent publication US4479951A, “1.4;3.6-Dianhydrohexitol nitrates substituted by purine bases, processes for their preparation and pharmaceutical compositions” (Dr. Willmar Schwabe GmbH & Co., priority 1980, dated 1984) are described below.

SMILES strings stand for the structures. Some results are limits rather than exact numbers.

Series [1] deals with guinea pigs. The experiment in a line: blood pressure-lowering effectiveness on narcotised guinea pigs, intravenous. It counts as in vivo, guinea pig. The note with it: for blood pressure previously: before administration.
For series [2], the system named is mouse. The series can be described thus: acute toxicity, p.o. and i.p. (footnote of Table VII). The note with it: p.o. It counts as in vivo.
Assay in series [3]: as above
The note with it: mouse, in vivo, ip. It is filed as in vivo.

In series [4] the test system is female NMRI-albino mice. The series can be described thus: acute toxicity, intravenous. It counts as in vivo. The note with it: mouse, in vivo.
Series [5] in a line: acute toxicity, intravenous. It counts as in vivo. The note with it: mouse, in vivo, iv; read-out: Evaluated LD50-range.
In series [6] the test system is isolated rat aorta preparations. The series can be described thus: spasmolytic effectiveness, potassium chloride-induced contractions. The note with it: read-out: ED50 potassium chloride spasm.
For series [7] the test system is unchanged. The series can be described thus: spasmolytic effectiveness, noradrenaline-induced contractions. The note with it: read-out: ED50 noradrenaline spasm.

For `Nc1ncnc2c1ncn2[C@H]1CO[C@H]2[C@@H]1OC[C@@H]2O[N+](=O)[O-]` [1c/2c, 5-(9-Adenyl)-5-desoxy-1.4;3.6-dianhydro-L-iditol 2-nitrate], the blood pressure afterwards in series [1] (0.25 mg/kg i.v.) turned out to be 50.50 ± 2.33 mm. Hg; in series [1] (1.00 mg/kg i.v.), 41.50 ± 3.97 mm. Hg; in series [1] (2.50 mg/kg i.v.), 38.75 ± 2.66 mm. Hg. Further, the “blood pressure Δ” value in series [1] (0.25 mg/kg i.v.) was -17.75 mm. Hg; in series [1] (1.00 mg/kg i.v.) it was -28.00 mm. Hg; in series [1] (2.50 mg/kg i.v.), -31.25 mm. Hg. Besides, the blood pressure previously in series [1] (0.25 mg/kg i.v.) was 68.25 ± 2.50 mm. Hg; in series [1] (1.00 mg/kg i.v.) it was 69.50 ± 2.90 mm. Hg; in series [1] (2.50 mg/kg i.v.), 70.00 ± 2.27 mm. Hg. Also, the “blood pressure-lowering effectiveness, comparison” value in series [1] (i.v.) is recorded as “even more effective than ISDN”. Further, in series [2], the LD70 p.o. mouse amounted to 1600 mg/kg. The compound also returned a median lethal dose (LD50) in series [3] of 540 mg/kg. In addition, the Frequency of death in series [4] is listed as 0/6. The LD50 at 24 h in series [5] was above 200 mg/kg. Besides, the IC50 was 2800 nM in series [6] and 135 nM in series [7].
